The values that follow are results of earlier work, collected in US8568704B2, “Dermatological/pharmaceutical compositions comprising benzoyl peroxide, at least one naphthoic acid compound and at least one polyurethane polymer” (Galderma Research & Development, priority 2006, dated 2013).

Read-outs that look alike come from different tables or passages of the source.

For data set [1] the following is noted: in presence of benzoyl peroxide-based formulation.
The conditions of data set [2]: 40° C.

Consider `COc1ccc(-c2ccc3cc(C(=O)O)ccc3c2)cc1C12CC3CC(CC(C3)C1)C2` [adapalene, 6-[3-(1-adamantyl)-4-methoxyphenyl]-2-naphthoic acid], for which the degradation of adapalene entry in data set [1] (for 24 hours) is listed as “no degradation”.

In the case of `O=C(OOC(=O)c1ccccc1)c1ccccc1` [benzoyl peroxide], the “benzoyl peroxide degradation time” value in data set [2] (in ethanol) is recorded as 29 days; in data set [2] (in propylene glycol), 53 days.

With `CC1=C(/C=C/C(C)=C/C=C/C(C)=C/C(=O)O)C(C)(C)CCC1` [tretinoin], the tretinoin degraded in data set [1] (within 2 hours) is 50%; in data set [1] (within 24 hours), 95%.
